According to patent US12209079B2 (GENERAL INCORPORATED ASSOCIATION PHARMA VALLEY PROJECT …, priority 2017, dated 2025):
Where a name gives a salt, the structure may show the parent alone.

Assays:
TDO in A172 cells = molecular target: T1, TDO in A172 cells (Homo sapiens, UniProt P48775); assay: TDO cell-based assay, kynurenine production in A172 cells; details: A 172; final concentration of the compound 10 μM; rate relative to culture without compound
T1 construct: endogenous in cells; host or cells: A172 cells
T1 sequence (P48775 whole entry): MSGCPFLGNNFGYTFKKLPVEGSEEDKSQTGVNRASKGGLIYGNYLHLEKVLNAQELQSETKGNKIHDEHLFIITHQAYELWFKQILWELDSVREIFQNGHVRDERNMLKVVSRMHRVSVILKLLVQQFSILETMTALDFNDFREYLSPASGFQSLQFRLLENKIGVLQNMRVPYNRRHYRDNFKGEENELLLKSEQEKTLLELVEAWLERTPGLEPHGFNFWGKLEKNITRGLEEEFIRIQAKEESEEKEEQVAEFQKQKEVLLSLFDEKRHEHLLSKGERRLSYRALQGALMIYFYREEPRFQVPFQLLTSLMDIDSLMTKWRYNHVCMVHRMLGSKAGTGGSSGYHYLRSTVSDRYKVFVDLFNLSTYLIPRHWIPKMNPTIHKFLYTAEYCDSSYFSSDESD
Procedure: A172 cells (3.0×10^5 cells/mL) suspended in a culture medium for assay (PRMI-1640; Wako 186-02155, 5% FBS, 50 units/mL penicillin, and 50 μg/mL streptomycin) were inoculated at 100 μL/well to a transparent 96-well flat-bottomed plate and cultured at 37° C. for 24 hours in 5% CO2. The culture medium was removed from the cells thus cultured. A culture medium for assay was added at 80 μL/well, and further, a compound solution was added at 10 μL/well. The cells were preincubated for 1 hour. Then, the whole amount was brought to 100 μL/well by the addition of 10 μL/well of a 5 mM aqueous tryptophan solution (final concentration of L-tryptophan: 524 μM), and the cells were cultured for 24 hours. After the culture, absorbance was measured at 460 nm using SpectraMax MSSK (Molecular Devices, LLC) (background measurement). After the measurement, a kynurenine quantification reagent (prepared with 7% [v/v] aqueous trichloroacetic acid solution and a solution of 2% [w/v] p-dimethylbenzaldehyde in acetic acid at 2:5 [v/v]) was added at 200 μL/well and reacted for 5 minutes, followed by the measurement of absorbance at 460 nm again. The rate of kynurenine production was calculated according to the following expression. Rate of kynurenine production (%) for each compound in the case of using A172 cells={(Absorbance at 460 nm in the tryptophan-containing culture medium comprising the A172 cells and the solution of the compound of the present invention−Absorbance of the background)/(Absorbance at 460 nm in the tryptophan-containing culture medium without the addition of the compound solution−Absorbance of the background)}×100

IDO in A431 cells = molecular target: T2, IDO in A431 cells (Homo sapiens, UniProt P14902); assay: IDO cell-based assay, kynurenine production in IFN-γ stimulated A431 cells; details: A-431, 24 h; final concentration of the compound 10 μM; rate relative to culture without compound
T2 construct: endogenous in cells; host or cells: A431 cells, IFN-γ stimulated
T2 sequence (P14902 whole entry): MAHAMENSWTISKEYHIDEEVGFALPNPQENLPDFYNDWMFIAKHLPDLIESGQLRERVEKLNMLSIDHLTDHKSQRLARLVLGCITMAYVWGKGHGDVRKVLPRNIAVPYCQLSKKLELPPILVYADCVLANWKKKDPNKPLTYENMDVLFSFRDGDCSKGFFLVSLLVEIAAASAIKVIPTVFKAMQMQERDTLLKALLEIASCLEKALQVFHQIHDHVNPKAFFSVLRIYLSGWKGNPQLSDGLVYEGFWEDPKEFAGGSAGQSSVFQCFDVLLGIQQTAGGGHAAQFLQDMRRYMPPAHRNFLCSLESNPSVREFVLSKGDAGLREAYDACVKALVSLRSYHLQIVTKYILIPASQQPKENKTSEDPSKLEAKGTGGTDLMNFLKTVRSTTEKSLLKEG
Procedure: A431 cells (3.0×10^5 cells/mL) suspended in a culture medium for assay (D-MEM; Wako 040-30095, 5% FBS, 50 units/mL penicillin, 50 μg/mL streptomycin, and 2 mM L-glutamine) were inoculated at 100 μL/well to a transparent 96-well flat-bottomed plate and cultured at 37° C. for 24 hours in 5% CO2. The culture medium was removed from the cells thus cultured. A tryptophan-containing culture medium (culture medium for assay supplemented with 178 μM L-tryptophan) was added at 80 μL/well, and further, a compound solution was added at 10 μL/well. The cells were preincubated for 1 hour. Then, the whole amount was brought to 100 μL/well by the addition of 10 μL/well of IFN-γ diluted into 100 ng/mL with a tryptophan-containing culture medium, and the cells were cultured for 24 hours. After the culture, absorbance was measured at 460 nm using SpectraMax MSSK (Molecular Devices, LLC) (background measurement). After the measurement, a kynurenine quantification reagent (prepared with 7% [v/v] aqueous trichloroacetic acid solution and a solution of 2% [w/v] p-dimethylbenzaldehyde in acetic acid at 2:5 [v/v]) was added at 200 μL/well and reacted for 5 minutes, followed by the measurement of absorbance at 460 nm again. The rate of kynurenine production was calculated according to the following expression. Rate of kynurenine production (%) for each compound in the case of using A431 cells={(Absorbance at 460 nm in the tryptophan-containing culture medium comprising the A431 cells and the solution of the compound of the present invention−Absorbance of the background)/(Absorbance at 460 nm in the tryptophan-containing culture medium without the addition of the compound solution−Absorbance of the background)}×100 TDO Cell-Based Assay Protocol

[1] = molecular target: rhIDO (recombinant human IDO) (Homo sapiens, UniProt P14902); assay: Enzyme assay using rhIDO (rate of kynurenine production); assay type: biochemical; details: 2 h; final concentration of the compound 10 μM; rate relative to reaction without compound; read-out: rhIDO-mediated kynurenine production
Chain of rhIDO (recombinant human IDO) (P14902 whole entry): as above
Procedure: Enzyme Assay Protocol Using rhIDO (Recombinant Human IDO)
4 μL of a compound solution was added to 176 μL of a rhIDO reaction solution (0.5 M potassium phosphate buffer (20 μL), 0.2 M ascorbic acid (20 μL), 0.5 mM methylene blue (4 μL), 10 mg/mL catalase (2 μL), H2O (128 μL), and rhIDO (2 μL)). The mixture was pipetted and preincubated at 37° C. for 10 minutes. Then, the whole amount was brought to 200 μL by the addition of 20 μL of a 2 mM aqueous tryptophan solution, and the mixture was pipetted again and reacted at 37° C. for 120 minutes. After the reaction, the enzymatic reaction was terminated by the addition of 40 μL of a 30% [v/v] aqueous trichloroacetic acid solution to the reaction solution. The mixture was well stirred by pipetting and heated at 50° C. for 15 minutes so that N-formylkynurenine was converted to kynurenine. The reaction solution thus heated was centrifuged (15,000 rpm, 5 min, 24° C.), and 150 μL of the supernatant was transferred to a transparent 96-well flat-bottomed plate, followed by the measurement of absorbance at 490 nm using SpectraMax MSSK (background measurement). After the measurement, a solution of 2% [w/v] p-dimethylbenzaldehyde in acetic acid was added at 150 μL/well and reacted for 5 minutes, followed by the measurement of absorbance at 490 nm again. The rate of kynurenine production was calculated according to the following expression. Rate of kynurenine production (%) for each compound in the case of using rhIDO={(Absorbance at 490 nm in the tryptophan-containing aqueous solution comprising rhIDO and the compound of the present invention−Absorbance of the background)/(Absorbance at 490 nm in the tryptophan-containing aqueous solution without the addition of the compound solution−Absorbance of the background)}×100 Enzyme Assay Protocol Using rhTDO (Recombinant Human TDO)

[2] = molecular target: rhTDO (recombinant human TDO) (Homo sapiens, UniProt P48775); assay: Enzyme assay using rhTDO (rate of kynurenine production); assay type: biochemical; details: 2 h; final concentration of the compound 10 μM; rate relative to reaction without compound; read-out: rhTDO-mediated kynurenine production
Chain of rhTDO (recombinant human TDO) (P48775 whole entry): as the sequence (P48775 whole entry) above
Procedure: 4 μL of a compound solution was added to 176 μL of a rhTDO reaction solution (0.5 M potassium phosphate buffer (20 μL), 0.2 M ascorbic acid (20 μL), 0.5 mM methylene blue (4 μL), 10 mg/mL catalase (2 μL), H2O (128 μL), and rhTDO (2 μL)). The mixture was pipetted and preincubated at 37° C. for 10 minutes. Then, the whole amount was brought to 200 μL by the addition of 20 μL of a 20 mM aqueous tryptophan solution, and the mixture was pipetted again and reacted at 37° C. for 120 minutes. After the reaction, the enzymatic reaction was terminated by the addition of 40 μL of a 30% [v/v] aqueous trichloroacetic acid solution to the reaction solution. The mixture was well stirred by pipetting and heated at 50° C. for 15 minutes so that N-formylkynurenine was converted to kynurenine. The reaction solution thus heated was centrifuged (15,000 rpm, 5 min, 24° C.), and 150 μL of the supernatant was transferred to a transparent 96-well flat-bottomed plate, followed by the measurement of absorbance at 490 nm using SpectraMax M5 SK (background measurement). After the measurement, a solution of 2% [w/v] p-dimethylbenzaldehyde in acetic acid was added at 150 μL/well and reacted for 5 minutes, followed by the measurement of absorbance at 490 nm again. The rate of kynurenine production was calculated according to the following expression. Rate of kynurenine production (%) for each compound in the case of using rhTDO={(Absorbance at 490 nm in the tryptophan-containing aqueous solution comprising rhTDO and the compound of the present invention−Absorbance of the background)/(Absorbance at 490 nm in the tryptophan-containing aqueous solution without the addition of the compound solution−Absorbance of the background)}×100 IDO Cell-Based Assay Protocol

| SMILES | remaining activity at 10 µM (TDO in A172 cells) [%] | remaining activity at 10 µM (IDO in A431 cells) [%] | remaining activity at 10 µM [1] [%] | remaining activity at 10 µM [2] [%] |
| --- | --- | --- | --- | --- |
| Brc1ccc(CCN2CN=C(SCc3ccccc3CSC3=NCN(CCc4ccc(Br)cc4)CN3)NC2)cc1 [Compound 20, 1,2-bis(((5-(4-bromophenethyl)-1,4,5,6-tetrahydro-1,3,5-triazin-2-yl)thio)methyl)benzene] | 0 | 6 | 27 | 44 |
| Clc1ccc(CCN2CN=C(SCc3ccccc3CSC3=NCN(CCc4ccc(Cl)cc4Cl)CN3)NC2)c(Cl)c1 [Compound 21, 1,2-bis(((5-(2,4-dichlorophenethyl)-1,4,5,6-tetrahydro-1,3,5-triazin-2-yl)thio)methyl)benzene] | -1 | 6 | 30 | 54 |
| Clc1ccc(CCN2CN=C(SCc3ccccc3CSC3=NCN(CCc4ccc(Cl)c(Cl)c4)CN3)NC2)cc1Cl [Compound 22, 1,2-bis(((5-(3,4-dichlorophenethyl)-1,4,5,6-tetrahydro-1,3,5-triazin-2-yl)thio)methyl)benzene] | -1 | 6 | 20 | 21 |
| Cc1ccc(CCN2CN=C(SCc3ccccc3CSC3=NCN(CCc4ccc(C)c(C)c4)CN3)NC2)cc1C [Compound 23, 1,2-bis(((5-(3,4-dimethylphenethyl)-1,4,5,6-tetrahydro-1,3,5-triazin-2-yl)thio)methyl)benzene] | -4 | 6 | 18 | 24 |
| Cc1ccc(C)c(CCN2CN=C(SCc3ccccc3CSC3=NCN(CCc4cc(C)ccc4C)CN3)NC2)c1 [Compound 24, 1,2-bis(((5-(2,5-dimethylphenethyl)-1,4,5,6-tetrahydro-1,3,5-triazin-2-yl)thio)methyl)benzene] | -2 | 4 | 27 | 25 |
| COC(=O)c1c(CSC(=N)N)[nH]c2ccccc12 [Compound 32, Methyl 2-((carbamimidoylthio)methyl)-1H-indole-3-carboxylate hydrobromide] | 52 | 54 | 59 | 51 |
| N=C(N)SCc1cccnc1CSC(=N)N [Compound 34, Pyridine-2,3-diylbis(methylene) dicarbamimidothioate dihydrobromide] | 47 | 29 | 25 | 27 |

The remaining lines, values ahead:

| remaining activity at 10 µM (TDO in A172 cells) [%] | remaining activity at 10 µM (IDO in A431 cells) [%] | remaining activity at 10 µM [1] [%] | remaining activity at 10 µM [2] [%] | SMILES |
| --- | --- | --- | --- | --- |
| -5 | 5 | 36 | 44 | COc1ccc(CN2CN=C(SCc3ccccc3CSC3=NCN(Cc4ccc(OC)cc4)CN3)NC2)cc1 [Compound 26, 1,2-bis(((5-(4-methoxybenzyl)-1,4,5,6-tetrahydro-1,3,5-triazin-2-yl)thio)methyl)benzene] |
| -3 | 7 | 33 | 56 | COc1ccc(CN2CN=C(SCc3ccccc3CSC3=NCN(Cc4ccc(OC)cc4OC)CN3)NC2)c(OC)c1 [Compound 27, 1,2-bis(((5-(2,4-dimethoxybenzyl)-1,4,5,6-tetrahydro-1,3,5-triazin-2-yl)thio)methyl)benzene] |
| 3 | 7 | 40 | 53 | Clc1ccccc1CCN1CN=C(SCc2ccccc2CSC2=NCN(CCc3ccccc3Cl)CN2)NC1 [Compound 28, 1,2-bis(((5-(2-chlorophenethyl)-1,4,5,6-tetrahydro-1,3,5-triazin-2-yl)thio)methyl)benzene] |
| 94 | 82 | 141 | 126 | O=C1CC(=O)NC(SCc2ccccc2CSC2=NC(=O)CC(=O)N2)=N1 [Compound 30, 2,2′-((1,2-phenylenebis(methylene))bis(sulfanediyl))bis(pyrimidine-4,6(1H,5H)-dione)] |
